Source: patent US4824996A, “Phospholipase A2 inhibitors” (American Home Products Corporation, priority 1986, dated 1989)
Where two headings read alike, the source gives them in different places.

How the values were obtained:
[1] = molecular target: T1, human platelet PLA2 (Homo sapiens, UniProt P14555); test: in vitro assay of inhibition of human platelet PLA2 (hydrolysis of [1-14C]oleic acid labelled E. coli membrane phospholipids); assay type: biochemical
T1 construct: The PLA2 enriched supernatant fluid is removed; from tissue; host or cells: expired human platelets from the blood bank (acid extract, 10,000 g supernatant)
T1 sequence (P14555 21-144): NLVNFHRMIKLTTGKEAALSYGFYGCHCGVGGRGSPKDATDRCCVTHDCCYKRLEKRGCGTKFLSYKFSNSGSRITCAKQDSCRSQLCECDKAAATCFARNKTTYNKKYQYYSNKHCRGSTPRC
Procedure: The ability of the compounds to inhibit the activity of PLA2 enzyme is measured in the following in vitro assay.
(§1) The assay is carried out as follows:
E. coli, cultured to exponential growth, are sedimented for 15 minutes at 10,000 g and resuspended in sterile isotonic saline (1-3 ml). 10-25 μCi [1-^14 C] oleic acid is added to a sterile flask, evaporated by N2 and resolubilized with 0.3 ml 20% fatty acid-free BSA. 75-100 ml of nutrient broth and 1 ml E. coli are then added to each flask and incubated for 2-3 hours at 37° C. [1-^14 C] oleic acid labelled E. coli are then sedimented, suspended in saline and added to fresh nutrient broth and incubated for 1.5 hours at 37° C. to complete [1-^14 C] oleic acid incorporation into the phospholipids. After overnight refrigeration of cultures, E. coli are again sedimented, suspended in saline and autoclaved for 15 minutes at 120° C. E. coli cultures are washed twice with saline (first wash contains 1% BSA) and resuspended in saline. Non-labelled E. coli cultures are also prepared in the same manner. Cell number is determined by measuring the optical density at 550 nm ([…]=1 O.D.). The amount of radioactivity associated with cells is determined by counting a defined volume of cell suspension. The specific activity is subsequently adjusted by adding non-labelled E. coli to yield 2-4×10 cpm per 1×10^10 E. coli. [1-^14 C] arachidonic acid-labelled E. coli are similarly prepared.
Platelet PLA2 Preparation
Expired human platelets from the blood bank are centrifuged for 15 minutes at 200 g to obtain a platelet rich plasma fraction and to remove the red blood cells. Platelets are sedimented for 15 minutes at 2500 g and the plasma is removed before adding cold 0.18N […] (4 ml/unit). Platelets are homogenized, incubated for 1 hour at 4° C., homogenized again and centrifuged for 15 minutes at 10,000 g. The PLA2 enriched supernatant fluid is removed and the amount of protein is determined by the Lowry method. The preparation is divided into various portions and stored at -20° C.
The assay measures the hydrolysis of E. coli membrane phospholipids and the release of free [1-^14 C] oleic acid from the C-2 position of phospholipids by human platelet PLA2. To ice cold 15×100 mm test tubes, the following additions are made: 2,5×10 E. coli (equivalent to 4 nmol phospholipid), 5 mM Ca^++, 100 mM Tris buffer (pH=7.4), 100 μg platelet extract (or an amount to produce 20-30% hydrolysis), drug or vehicle. The final volume is adjusted to 500 μl with water. Mixtures are vortexed and incubated for 30 minutes in a shaking water bath. It should be noted that preliminary experiments are always performed with each new batch of platelets to establish linear hydrolysis of phospholipids with regard to protein concentration and time. The enzyme reaction is stopped by the addition of 3 volumes of CHCl3 to each tube which is vortexed and then centrifuged for 5 minutes at 500 g. The lower CHCl3 /CH3 OH phase is removed and evaporated under N. The dried residue is redissolved in 50 μl CHCl3 :CH3 OH (9:1 v/v), spotted on aluminum-backed chromatographic plates and developed in a solvent system consisting of petroleum ether:diethyl ether:acetic acid (80:20:1). Free fatty acid ([1-^14 C]oleic acid) and [1-^14 C]oleic acid labeled phospholipids are visualized with exposure to iodine vapors. Radioactive areas that cochromatographed with authentic oleic acid and phospholipid standards are cut out and placed in a scintillation vial. One ml CH3 OH and 10 ml Hydrofluor are added to each cut strip and radioactivity is determined by liquid scintillation counting.
The percent hydrolysis is calculated by the following equation: [formula]

[2] = tested on: lipoxygenase and/or cyclooxygenase pathways of arachidonic acid; test: in vivo arachidonic acid (AA)-induced murine ear edema test; set-up: species or system Swiss Webster female mice; settings: 1 mg/ear, 30 minutes prior to AA, ears measured after 1 hour
Excerpt: (§2) The ability of the compounds of the invention to inhibit the lipoxygenase and/or cyclooxygenase pathways of arachidonic acid is examined in the in vivo arachidonic acid (AA)-/12-O-tetradecanoylphorbol acetate (TPA)-induced murine ear edema test.
According to this test, Swiss Webster female mice (Buckshire), approximately 8 weeks old, are placed into plastic boxes in groups of six. Eight groups of mice receive AA topically on the right ear, and another 8 groups receive TPA topically on the right ear. AA and TPA are dissolved in acetone at concentrations of 100 mg/ml ad 100 μg/ml respectively. The phlogistics are applied to the right ear by the means of an automatic pipet. Volumes of 10 μl are applied to the inner and outer surfaces of the ear. Each mouse receives either 2 mg/ear AA or […] TPA. The left ear (control) receives acetone delivered in the same manner. […]
(§3) Measurements are taken with Oditest calipers, 0-10 mm with 0.01 graduations. The right and left ears are measured after 1 hour AA-induced inflammation and 4 hours after TPA-induced inflammation.
(§4) The difference between right and left ear thickness is calculated and the significance is determined by a one way analysis of variance with Dunnett's comparisons to control (P=0.05). Drug effects are expressed as a percent change from control values: [formula]

[3] = tested on: lipoxygenase and/or cyclooxygenase pathways of arachidonic acid; test: in vivo 12-O-tetradecanoylphorbol acetate (TPA)-induced murine ear edema test; set-up: species or system Swiss Webster female mice; settings: 30 minutes after TPA, ears measured after 4 hours; for % Change from Control, TOPICAL TPA: 1 mg/ear; for % Change from Control, ORAL TPA: 100 mg/kg
Excerpt: as §2
According to this test, Swiss Webster female mice (Buckshire), approximately 8 weeks old, are placed into plastic boxes in groups of six. Eight groups of mice receive AA topically on the right ear, and another 8 groups receive TPA topically on the right ear. AA and TPA are dissolved in acetone at concentrations of 100 mg/ml ad 100 μg/ml respectively. The phlogistics are applied to the right ear by the means of an automatic pipet. Volumes of 10 μl are applied to the inner and outer surfaces of the ear. Each mouse receives either 2 mg/ear AA or 4 μg/ear TPA. The left ear (control) receives acetone delivered in the same manner. Oral and topical dosing regimens are as follows: (1) drugs are given 30 minutes prior to AA treatment, and (2) drugs are given 30 minutes after treatment with TPA.
as §3, §4

[4] = tested on: synthesis of arachidonic acid by murine peritoneal macrophages; test: inhibition of arachidonic acid (AA) synthesis by murine peritoneal macrophages; assay type: cell-based, CD-1 mice; settings: compounds at 10 μm (so in the source)
Procedure: (§5) The ability of the compounds of the invention to inhibit both leukotriene and prostaglandin synthesis is examined in an assay which measures the ability of the compounds of the invention to inhibit the synthesis of arachidonic acid, PGE2 and LTC4 by murine peritoneal macrophages.
as §1
(§6) Macrophages are removed from the peritoneal cavity of 55-57 day old CD-1 mice (killed by CO2 asphyxiation) by peritoneal lavage and centrifuged at 400×g for ten minutes. The cells are resuspended in Medium 199 and 4×10^6 cells are allowed to adhere on 35×10 mm Petri dishes for 1.5 hours at 37° C. in an atmosphere of 95% air and 5% CO2. The cell monolayers are washed and incubated overnight in Medium 199 supplemented with 10% heat inactivated bovin serum containing 1 μCi[^14 C]-arachidonic acid, or in the absence of ^14 C-arachidonic acid when the supernatant is to be assayed by radioimmunoassay (RIA). The labeled cells are then washed and incubated at 37° C. for 2 hours in Medium 199 with the prostaglandin stimuli, zymosan, or 12-o-tetradecanoyl-phorbol-13-acetate (TPA) and in the presence or absence of test compounds. Following incubation, the supernatant is removed and subjected to radioimmunoassay in order to determine the percent inhibition of arachidonic acid, prostaglandin E2 and leukotriene C4 by the test compounds.

[5] = tested on: synthesis of PGE2 by murine peritoneal macrophages; test: inhibition of PGE2 synthesis by murine peritoneal macrophages; assay type: cell-based, CD-1 mice; settings: compounds at 10 μm (so in the source)
Procedure: as §5, §1, §6

[6] = tested on: synthesis of LTC4 by murine peritoneal macrophages; test: inhibition of LTC4 synthesis by murine peritoneal macrophages; assay type: cell-based, CD-1 mice; settings: compounds at 10 μm (so in the source)
Procedure: as §5, §1, §6

[7] = compounds of the invention, Table 1, read-out: IC50 (inhibition of PLA2)

Compound	inhibition at 100 µM [1] [%]	IC50 [1, 7] [µM]	% Change from Control, TOPICAL TPA [3] [%]	Mean % Inhibition ± S.E., AA [4] [%]	Mean % Inhibition ± S.E., PGE2 [5] [%]	Mean % Inhibition ± S.E., LTC4 [6] [%]	also measured
CCCCCCCCCCCCNC(=O)OCCCCCCN(C)C [Example 1, Dodecylcarbamic acid 6-(dimethylamino)hexyl ester]	100	–	–	–	–	–	–
CCCCCCCCCCCCCCCCNC(=O)OCCCCCCN(C)C [Example 2, Hexadecylcarbamic acid 6-(dimethylamino)hexyl ester]	100	30	-42	36.92 ± 6.29	81.18 ± 2.06	81.00 ± 1.79	% Change from Control, TOPICAL AA [2]: -29%
CCCCCCCCCCCCCCCCNC(=O)OCCCN(C)C [Example 3, Hexadecylcarbamic acid 3-(dimethylamino)propyl ester]	100	–	–	–	–	–	–
CCCCCCCCCCCCCCC(=O)NCCCN(C)C [Example 4, N-[3-(dimethylamino)propyl]pentadecanamide]	100	6.8	-48	34.12 ± 5.58	48.62 ± 9.32	91.95 ± 2.57	% Change from Control, ORAL TPA [3]: -60%
CCCCCCNC(=O)OCCCCCCN(C)C [Example 5, Hexylcarbamic acid 6-(dimethylamino)hexyl ester]	11	–	–	–	–	–	–
CCCCCCCCCCCCCCCCNC(=O)NCCCN(C)C [Example 6, N-[3-(dimethylamino)propyl]-N'-hexadecylurea]	100	–	–	–	–	–	–
CCCCCCCCCCCCCCCCS(=O)(=O)NCCCCCCCN(CC)CC [Example 7]	94.4	–	–	–	–	–	–
Gold Sodium Thiomalate [reference compound]	–	–	–	–	–	–	IC50 ([1]; standard drugs, read-out: Inhibition of PLA2 Activity IC50): 43 µM

Continued, in another order:

inhibition at 100 µM [1] [%]	IC50 [1, 7] [µM]	Compound	% Change from Control, TOPICAL TPA [3] [%]	Mean % Inhibition ± S.E., AA [4] [%]	Mean % Inhibition ± S.E., PGE2 [5] [%]	Mean % Inhibition ± S.E., LTC4 [6] [%]	also measured
55.9	–	CCCCCCCCCCCCCC(=O)NN(C)C [Example 8, Tetradecanoic acid 2,2-dimethylhydrazide]	–	–	–	–	–
100	8.5	CCCCCCCCCCCCCC(=O)N1CC(C)NC(C)C1 (stereo not shown) [Example 9, 3,5-Dimethyl-1-(1-oxotetradecyl)piperazine]	-55	50.42 ± 2.50	73.50 ± 8.20	82.15 ± 2.48	% Change from Control, ORAL TPA [3]: -25%
